The target in one assay is EGFR L858R/C797S (Homo sapiens, UniProt P00533, C797S/L858R). The experiment in a line: Biochemical EGFR kinase assay (Lance Ultra TR-FRET), double mutant L858R/C797S. The gist of the method:
(§1)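 Kinase activity is measured by TR-FRET phosphopeptide detection. Compounds span 0.003 μM to 10 μM; the 1 h reaction at room temperature is quenched with EDTA, then labelled antibody (2 nM) is incubated 60 min before reading.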
For orientation: In TR-FRET formats the signal depends on donor and acceptor labels being close together.

In another assay the target is EGFR wildtype (WT) (Homo sapiens, UniProt P00533). In words: Biochemical EGFR kinase assay (Lance Ultra TR-FRET), wildtype. The gist of the method: as §1
Sequence of EGFR wildtype (WT) (P00533 25-1210): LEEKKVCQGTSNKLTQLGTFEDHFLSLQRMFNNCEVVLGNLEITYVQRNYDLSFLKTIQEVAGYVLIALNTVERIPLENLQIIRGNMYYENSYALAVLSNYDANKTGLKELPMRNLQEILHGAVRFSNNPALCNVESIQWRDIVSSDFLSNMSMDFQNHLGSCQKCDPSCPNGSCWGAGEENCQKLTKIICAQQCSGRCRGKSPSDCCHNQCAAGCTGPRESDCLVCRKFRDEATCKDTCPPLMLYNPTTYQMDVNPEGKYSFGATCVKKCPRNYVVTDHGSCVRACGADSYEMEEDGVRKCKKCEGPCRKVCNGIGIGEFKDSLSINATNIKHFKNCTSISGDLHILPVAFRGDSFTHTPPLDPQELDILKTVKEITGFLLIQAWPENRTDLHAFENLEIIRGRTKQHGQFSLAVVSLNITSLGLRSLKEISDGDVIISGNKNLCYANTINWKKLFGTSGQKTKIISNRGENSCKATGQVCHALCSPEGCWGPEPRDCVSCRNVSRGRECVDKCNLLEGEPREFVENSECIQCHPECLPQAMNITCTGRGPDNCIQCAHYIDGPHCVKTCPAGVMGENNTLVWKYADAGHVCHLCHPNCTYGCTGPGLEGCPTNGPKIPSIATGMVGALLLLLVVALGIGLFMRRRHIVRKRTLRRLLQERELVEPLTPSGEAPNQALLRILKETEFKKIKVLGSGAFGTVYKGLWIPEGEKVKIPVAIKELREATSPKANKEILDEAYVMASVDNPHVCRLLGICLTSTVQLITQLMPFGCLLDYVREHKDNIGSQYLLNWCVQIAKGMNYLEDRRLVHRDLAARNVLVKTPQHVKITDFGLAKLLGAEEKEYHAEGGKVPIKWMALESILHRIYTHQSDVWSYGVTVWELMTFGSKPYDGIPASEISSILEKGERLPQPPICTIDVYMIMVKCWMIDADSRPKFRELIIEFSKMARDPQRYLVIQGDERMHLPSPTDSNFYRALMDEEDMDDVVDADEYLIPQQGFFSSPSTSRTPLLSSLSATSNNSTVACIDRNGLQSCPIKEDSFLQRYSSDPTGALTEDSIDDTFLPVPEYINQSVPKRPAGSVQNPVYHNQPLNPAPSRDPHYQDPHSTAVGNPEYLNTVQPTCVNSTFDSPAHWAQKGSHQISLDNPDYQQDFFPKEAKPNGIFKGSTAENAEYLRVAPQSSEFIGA
For the next assay, the target named is EGFR del19/T790M/C797S (Homo sapiens, UniProt P00533, C797S/DEL746-750/T790M). In words: Biochemical EGFR kinase assay (Lance Ultra TR-FRET), triple mutant del19/T790M/C797S. A digest of the protocol: as §1
Sequence of EGFR del19/T790M/C797S (P00533 with tags, fused parts or gaps DEL746-750/T790M/C797S): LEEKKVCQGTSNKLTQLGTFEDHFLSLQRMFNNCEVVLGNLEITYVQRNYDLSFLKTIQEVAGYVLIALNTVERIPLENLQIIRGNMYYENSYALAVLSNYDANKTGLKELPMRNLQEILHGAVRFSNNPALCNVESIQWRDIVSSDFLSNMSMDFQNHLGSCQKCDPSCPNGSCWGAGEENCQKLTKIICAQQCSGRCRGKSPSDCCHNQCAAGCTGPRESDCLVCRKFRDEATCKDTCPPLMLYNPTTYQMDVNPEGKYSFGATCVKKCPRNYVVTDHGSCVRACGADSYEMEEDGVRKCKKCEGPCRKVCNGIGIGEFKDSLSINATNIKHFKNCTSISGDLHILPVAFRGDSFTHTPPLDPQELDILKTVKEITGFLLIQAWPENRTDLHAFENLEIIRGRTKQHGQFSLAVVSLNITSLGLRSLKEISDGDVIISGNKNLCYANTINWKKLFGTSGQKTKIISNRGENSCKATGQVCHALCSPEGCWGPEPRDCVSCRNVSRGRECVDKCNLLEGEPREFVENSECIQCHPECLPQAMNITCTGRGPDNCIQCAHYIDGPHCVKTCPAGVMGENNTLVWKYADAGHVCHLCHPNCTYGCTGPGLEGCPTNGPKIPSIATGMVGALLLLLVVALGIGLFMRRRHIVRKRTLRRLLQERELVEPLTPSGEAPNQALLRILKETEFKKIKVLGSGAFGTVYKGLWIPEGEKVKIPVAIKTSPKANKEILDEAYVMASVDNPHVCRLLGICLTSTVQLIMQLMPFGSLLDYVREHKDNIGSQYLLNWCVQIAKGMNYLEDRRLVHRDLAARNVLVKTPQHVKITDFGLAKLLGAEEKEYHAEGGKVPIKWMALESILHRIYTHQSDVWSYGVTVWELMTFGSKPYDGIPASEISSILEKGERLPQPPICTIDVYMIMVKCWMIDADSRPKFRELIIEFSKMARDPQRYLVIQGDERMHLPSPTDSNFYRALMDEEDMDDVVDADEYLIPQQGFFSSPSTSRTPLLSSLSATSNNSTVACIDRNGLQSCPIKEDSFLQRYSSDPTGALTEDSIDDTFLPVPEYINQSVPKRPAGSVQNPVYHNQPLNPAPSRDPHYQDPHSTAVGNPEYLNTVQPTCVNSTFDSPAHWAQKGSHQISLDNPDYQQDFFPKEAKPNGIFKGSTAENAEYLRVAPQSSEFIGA
The target of another assay is EGFR del19/C797S (Homo sapiens, UniProt P00533, C797S/DEL746-750). The experiment in a line: Biochemical EGFR kinase assay (Lance Ultra TR-FRET), double mutant del19/C797S. A digest of the protocol:
as §1

The target in another assay is EGFR L858R/T790M/C797S (Homo sapiens, UniProt P00533, C797S/L858R/T790M). The experiment in a line: Biochemical EGFR kinase assay (Lance Ultra TR-FRET), triple mutant L858R/T790M/C797S. A digest of the protocol: as §1
Sequence of EGFR L858R/T790M/C797S (P00533 25-1210 T790M/C797S/L858R): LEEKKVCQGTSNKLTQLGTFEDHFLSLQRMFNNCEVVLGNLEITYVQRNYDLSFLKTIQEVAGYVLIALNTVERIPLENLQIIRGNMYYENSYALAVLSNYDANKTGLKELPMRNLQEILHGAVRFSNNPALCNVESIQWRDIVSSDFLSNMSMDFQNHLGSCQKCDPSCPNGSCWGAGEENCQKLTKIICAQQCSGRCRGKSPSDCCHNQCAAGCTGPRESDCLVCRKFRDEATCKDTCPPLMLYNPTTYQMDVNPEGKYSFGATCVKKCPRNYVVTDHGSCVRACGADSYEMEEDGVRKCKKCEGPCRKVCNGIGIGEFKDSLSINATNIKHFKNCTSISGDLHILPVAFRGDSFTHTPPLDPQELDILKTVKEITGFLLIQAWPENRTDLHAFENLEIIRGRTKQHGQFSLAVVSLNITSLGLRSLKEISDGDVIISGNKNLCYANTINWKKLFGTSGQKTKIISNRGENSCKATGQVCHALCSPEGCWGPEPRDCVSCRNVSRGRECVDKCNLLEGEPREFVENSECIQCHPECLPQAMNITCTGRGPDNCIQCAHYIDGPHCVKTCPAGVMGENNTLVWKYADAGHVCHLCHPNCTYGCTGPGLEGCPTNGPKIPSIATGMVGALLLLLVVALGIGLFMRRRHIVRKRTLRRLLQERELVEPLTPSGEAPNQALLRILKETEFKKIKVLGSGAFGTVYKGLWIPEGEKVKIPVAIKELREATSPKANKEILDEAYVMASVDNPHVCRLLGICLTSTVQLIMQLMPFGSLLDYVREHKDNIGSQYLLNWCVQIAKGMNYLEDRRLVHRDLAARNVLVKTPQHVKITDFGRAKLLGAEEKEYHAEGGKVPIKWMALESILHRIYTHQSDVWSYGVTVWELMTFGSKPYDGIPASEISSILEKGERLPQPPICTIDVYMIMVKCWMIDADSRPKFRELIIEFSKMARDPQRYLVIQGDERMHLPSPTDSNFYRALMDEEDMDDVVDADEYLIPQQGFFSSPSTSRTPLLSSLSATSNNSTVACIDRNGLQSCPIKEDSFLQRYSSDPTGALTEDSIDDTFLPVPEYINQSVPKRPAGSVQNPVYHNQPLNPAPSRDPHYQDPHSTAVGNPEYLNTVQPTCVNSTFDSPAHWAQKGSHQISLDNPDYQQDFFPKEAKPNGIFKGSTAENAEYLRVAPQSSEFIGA
Setting [1] is: IC50 L858R/C797S (nM) 100 μM ATP, 100 μM ATP.
Setting [2] is: IC50 WT (nM) 100 μM ATP, 100 μM ATP.
The mark [3] stands for this setting: IC50 del19/T790M/C797S (nM) 100 μM ATP, 100 μM ATP.
The mark [4] stands for this setting: IC50 del19/C797S (nM) 100 μM ATP, 100 μM ATP.
[5] abbreviates: IC50 L858R/T790M/C797S (nM) 100 μM ATP, 100 μM ATP.
[6] abbreviates: Km ATP, read-out: IC50 L858R/C797S (nM) Km ATP.
The mark [7] stands for this setting: Km ATP, read-out: IC50 WT (nM) Km ATP.
Where [8] appears, read: Km ATP, read-out: IC50 del19/T790M/C797S (nM) Km ATP.
The mark [9] stands for this setting: Km ATP, read-out: IC50 del19/C797S (nM) Km ATP.
The mark [10] stands for this setting: Km ATP, read-out: IC50 L858R/T790M/C797S (nM) Km ATP.

Molecules are shown by their SMILES. Read-outs that look alike come from different tables or passages of the source.

Sequence of EGFR del19/C797S (P00533 with tags, fused parts or gaps DEL746-750/C797S): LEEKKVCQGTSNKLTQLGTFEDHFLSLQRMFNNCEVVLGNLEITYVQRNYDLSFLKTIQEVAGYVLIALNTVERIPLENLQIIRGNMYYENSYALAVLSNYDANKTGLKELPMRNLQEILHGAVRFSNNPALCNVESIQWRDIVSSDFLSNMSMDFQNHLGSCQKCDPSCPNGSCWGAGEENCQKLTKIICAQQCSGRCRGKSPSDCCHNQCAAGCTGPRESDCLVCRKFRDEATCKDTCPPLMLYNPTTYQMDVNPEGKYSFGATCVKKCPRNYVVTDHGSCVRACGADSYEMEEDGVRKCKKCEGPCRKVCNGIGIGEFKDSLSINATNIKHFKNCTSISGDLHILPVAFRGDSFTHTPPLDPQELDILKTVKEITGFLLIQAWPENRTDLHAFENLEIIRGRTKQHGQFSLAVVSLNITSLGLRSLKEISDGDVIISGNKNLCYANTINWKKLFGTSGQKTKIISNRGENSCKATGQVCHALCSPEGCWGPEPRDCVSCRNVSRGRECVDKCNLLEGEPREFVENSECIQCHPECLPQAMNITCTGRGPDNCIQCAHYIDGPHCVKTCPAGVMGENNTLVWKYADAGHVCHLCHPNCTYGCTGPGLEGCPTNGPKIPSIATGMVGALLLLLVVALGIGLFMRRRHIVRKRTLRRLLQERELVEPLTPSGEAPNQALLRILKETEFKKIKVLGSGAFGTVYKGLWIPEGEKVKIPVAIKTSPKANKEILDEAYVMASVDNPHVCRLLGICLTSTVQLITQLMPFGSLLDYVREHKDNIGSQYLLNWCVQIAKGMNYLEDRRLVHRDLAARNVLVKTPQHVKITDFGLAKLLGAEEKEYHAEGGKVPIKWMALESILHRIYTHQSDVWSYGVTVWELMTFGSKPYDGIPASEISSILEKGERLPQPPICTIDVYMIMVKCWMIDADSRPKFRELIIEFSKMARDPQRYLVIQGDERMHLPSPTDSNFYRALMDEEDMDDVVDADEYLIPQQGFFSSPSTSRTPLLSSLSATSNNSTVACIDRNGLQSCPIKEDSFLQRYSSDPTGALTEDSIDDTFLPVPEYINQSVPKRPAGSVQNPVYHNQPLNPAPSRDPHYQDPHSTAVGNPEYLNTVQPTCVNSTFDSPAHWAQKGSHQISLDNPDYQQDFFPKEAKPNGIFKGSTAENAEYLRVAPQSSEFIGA

Turning to `CN(CC(F)F)C[C@H]1CC[C@@H](Nc2cc(Nc3ccnc(-c4cnn(S(=O)(=O)C5CC5)c4)n3)ncc2-c2ccn(CC(F)F)n2)CC1` [Example 245, N^2-(2-(1-(Cyclopropylsulfonyl)-1H-pyrazol-4-yl)pyrimidin-4-yl)-N^4-((1s,4s)-4-(((2,2-difluoroethyl)(methyl)amino)methyl)cyclohexyl)-5-(1-(2,2-difluoroethyl)-1H-pyrazol-3-yl)pyridine-2,4-diamine], the IC50 against EGFR L858R/C797S (setting [1]) is 259 nM; against EGFR wildtype (WT) (setting [2]), greater than 10000 nM; against EGFR del19/T790M/C797S (setting [3]), 13.1 nM; at EGFR del19/C797S (setting [4]) it was 27.8 nM; on EGFR L858R/T790M/C797S (setting [5]) it was 12.8 nM.

As for `C[C@]1(O)CC[C@@H](Nc2cc(Nc3ccnc(-c4cnn(CC(F)F)c4)n3)ncc2-n2ccc(C(F)F)n2)CC1` [Example 177, (1s,4s)-4-((2-((2-(1-(2,2-Difluoroethyl)-1H-pyrazol-4-yl)pyrimidin-4-yl)amino)-5-(3-(difluoromethyl)-1H-pyrazol-1-yl)pyridin-4-yl)amino)-1-methylcyclohexan-1-ol], the IC50 is 36.6 nM on EGFR L858R/C797S (setting [6]); 4620 nM at EGFR wildtype (WT) (setting [7]); 0.8 nM at EGFR del19/T790M/C797S (setting [8]); 1320 nM on EGFR del19/C797S (setting [9]); 0.8 nM at EGFR L858R/T790M/C797S (setting [10]).

As to `CN(C)CC[C@H]1CC[C@@H](Nc2cc(Nc3ccnc(-c4cnn(S(=O)(=O)C5CC5)c4)n3)ncc2-c2ccn(CC(F)F)n2)CC1` [Example 251, N^2-(2-(1-(Cyclopropylsulfonyl)-1H-pyrazol-4-yl)pyrimidin-4-yl)-5-(1-(2,2-difluoroethyl)-1H-pyrazol-3-yl)-N^4-((1s,4s)-4-(2-(dimethylamino)ethyl)cyclohexyl)pyridine-2,4-diamine], the IC50 on EGFR L858R/C797S (setting [6]) came out at 0.1 nM; at EGFR wildtype (WT) (setting [7]) it was 0.3 nM; at EGFR del19/T790M/C797S (setting [8]), 0.7 nM; on EGFR del19/C797S (setting [9]), 0.4 nM; on EGFR L858R/T790M/C797S (setting [10]), 0.2 nM.

For the molecule `Cn1ccc(-c2cnc(Nc3ccnc(-c4cnn(S(=O)(=O)C5CC5)c4)n3)cc2N[C@H]2CCC[C@H](CO)C2)n1` [Example 233, ((1S,3S)-3-((2-((2-(1-(Cyclopropylsulfonyl)-1H-pyrazol-4-yl)pyrimidin-4-yl)amino)-5-(1-methyl-1H-pyrazol-3-yl)pyridin-4-yl)amino)cyclohexyl)methanol], the IC50 against EGFR L858R/C797S (setting [1]) was determined as 4.2 nM; on EGFR L858R/C797S (setting [6]), 0.9 nM; against EGFR wildtype (WT) (setting [2]), 3140 nM; on EGFR wildtype (WT) (setting [7]), 3.6 nM; at EGFR del19/T790M/C797S (setting [3]), 0.5 nM; at EGFR del19/T790M/C797S (setting [8]), 0.4 nM. Moreover, the IC50 on EGFR del19/C797S (setting [4]) was 1.3 nM; on EGFR del19/C797S (setting [9]) it was 0.5 nM; against EGFR L858R/T790M/C797S (setting [5]), 0.4 nM; on EGFR L858R/T790M/C797S (setting [10]), 0.2 nM.

In the case of `C[C@]1(O)CCCN(c2cc(Nc3ccnc(-c4cnn(S(=O)(=O)C5CC5)c4)n3)ncc2-c2ccn(C(F)F)n2)C1` [Example 107, (S)-1-(2-((2-(1-(Cyclopropylsulfonyl)-1H-pyrazol-4-yl)pyrimidin-4-yl)amino)-5-(1-(difluoromethyl)-1H-pyrazol-3-yl)pyridin-4-yl)-3-methylpiperidin-3-ol], the IC50 against EGFR L858R/C797S (setting [1]) was 346 nM; at EGFR wildtype (WT) (setting [2]) it was greater than 10000 nM; on EGFR del19/T790M/C797S (setting [3]), 2.7 nM; against EGFR del19/C797S (setting [4]), 113 nM; on EGFR L858R/T790M/C797S (setting [5]), 4.6 nM.

In the case of `CN(C)CC1(C)CCC(Nc2cc(Nc3ccnc(-c4cnn(S(=O)(=O)C5CC5)c4)n3)ncc2-c2ccn(CC(F)(F)F)n2)CC1` (stereo not shown) [Example 267, N^2-(2-(1-(Cyclopropylsulfonyl)-1H-pyrazol-4-yl)pyrimidin-4-yl)-N^4-(4-((dimethylamino)methyl)-4-methylcyclohexyl)-5-(1-(2,2,2-trifluoroethyl)-1H-pyrazol-3-yl)pyridine-2,4-diamine], the IC50 is 576 nM at EGFR L858R/C797S (setting [1]); 25.4 nM at EGFR L858R/C797S (setting [6]); 8270 nM on EGFR wildtype (WT) (setting [2]); 28.7 nM at EGFR wildtype (WT) (setting [7]); 0.1 nM at EGFR del19/T790M/C797S (setting [3]); 0.2 nM on EGFR del19/T790M/C797S (setting [8]). Further, the IC50 against EGFR del19/C797S (setting [4]) turned out to be 8.8 nM; on EGFR del19/C797S (setting [9]), 6.7 nM; against EGFR L858R/T790M/C797S (setting [5]), 0.1 nM; at EGFR L858R/T790M/C797S (setting [10]), 0.5 nM.

Values taken from patent US12258327B2, “5-membered heteroaryl-containing aminopyridine compounds as EGFR inhibitors” (YUHAN CORPORATION, priority 2021, dated 2025).
